These results are taken from ChEMBL document CHEMBL1777706, “Discovery of selective and orally available spiro-3-piperidyl ATP-competitive MK2 inhibitors” (Bioorg Med Chem Lett, 2011).

As usually defined, the inhibition is the relative decrease from the control value, in per cent. A word on the half-life: it is how long it takes for the measured level to halve. Read a high half-life as slow loss. What is called AUC is concentration integrated over time. Lower therefore signals less exposure. In general, EC50 refers to the concentration at which the effect is half-maximal. What is called pKa is the negative logarithm of the acid dissociation constant. High values mean a weaker acid or stronger base, low ones a stronger acid or weaker base. Broadly, the Papp is a coefficient for how fast a substance crosses the barrier. As a reminder, the bioavailability is dose-corrected exposure relative to a reference, in per cent. A high value points to good availability.

The target in series [1] is Serine/threonine-protein kinase pim-1 (Homo sapiens) (UniProt P11309). The series can be described thus: Inhibition of PIM1 at 1 uM.
Serine/threonine-protein kinase pim-1 (Homo sapiens), sequence (P11309 whole entry, looked up): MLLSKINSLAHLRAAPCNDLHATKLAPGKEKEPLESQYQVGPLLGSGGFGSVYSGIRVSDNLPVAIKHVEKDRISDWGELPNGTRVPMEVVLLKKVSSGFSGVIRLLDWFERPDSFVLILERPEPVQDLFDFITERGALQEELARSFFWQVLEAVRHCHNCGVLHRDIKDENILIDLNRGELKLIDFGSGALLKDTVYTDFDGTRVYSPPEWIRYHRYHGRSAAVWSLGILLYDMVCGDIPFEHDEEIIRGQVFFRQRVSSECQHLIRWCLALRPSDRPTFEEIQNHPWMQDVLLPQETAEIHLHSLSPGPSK
Series [2] can be described thus: Half life in rat liver microsomes. It is filed as ADME, Microsome.
Series [3] concerns the target Serine/threonine-protein kinase pim-3 (Homo sapiens) (UniProt Q86V86). As to the kind of experiment: Inhibition of PIM3 at 1 uM.
Series [4] has as its system THP-1. The series can be described thus: Cytotoxicity against human THP1 cells by Alamar blue assay. Format: cell-based. On the technique in general: Resazurin is reduced to fluorescent resorufin, in cell work by metabolically active cells.
The nature of series [5]: Half life in human liver microsomes. Format: ADME, Microsome.
For series [6], the target named is T1, Serine/threonine-protein kinase 17A (Homo sapiens) (UniProt Q9UEE5).
T1 sequence (whole entry): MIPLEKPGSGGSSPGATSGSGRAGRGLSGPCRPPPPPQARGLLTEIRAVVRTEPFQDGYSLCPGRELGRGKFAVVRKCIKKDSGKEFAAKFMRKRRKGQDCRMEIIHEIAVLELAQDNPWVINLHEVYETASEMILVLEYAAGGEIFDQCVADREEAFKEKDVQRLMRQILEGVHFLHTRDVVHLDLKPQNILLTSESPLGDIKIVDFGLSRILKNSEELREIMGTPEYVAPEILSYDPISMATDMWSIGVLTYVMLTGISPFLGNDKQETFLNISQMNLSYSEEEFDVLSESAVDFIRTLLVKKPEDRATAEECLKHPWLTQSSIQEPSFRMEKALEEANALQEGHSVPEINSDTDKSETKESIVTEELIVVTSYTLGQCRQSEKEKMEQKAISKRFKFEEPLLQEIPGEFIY
The series can be described thus: Inhibition of DRAK1 at 1 uM.

Series [7] is described as follows: AUC in po dosed rat. Format: ADME, organism-based. Particulars: plasma.
Series [8] deals with T2, MAP kinase-activated protein kinase 2 (Homo sapiens, UniProt P49137). As to the kind of experiment: Inhibition of MK2 in LPS-stimulated human THP1 cells assessed as inhibition of Hsp27 phosphorylation pretreated 60 mins before LPS challenge measured after 10 mins. It is filed as cell-based, THP-1.
T2 sequence (P49137 whole entry): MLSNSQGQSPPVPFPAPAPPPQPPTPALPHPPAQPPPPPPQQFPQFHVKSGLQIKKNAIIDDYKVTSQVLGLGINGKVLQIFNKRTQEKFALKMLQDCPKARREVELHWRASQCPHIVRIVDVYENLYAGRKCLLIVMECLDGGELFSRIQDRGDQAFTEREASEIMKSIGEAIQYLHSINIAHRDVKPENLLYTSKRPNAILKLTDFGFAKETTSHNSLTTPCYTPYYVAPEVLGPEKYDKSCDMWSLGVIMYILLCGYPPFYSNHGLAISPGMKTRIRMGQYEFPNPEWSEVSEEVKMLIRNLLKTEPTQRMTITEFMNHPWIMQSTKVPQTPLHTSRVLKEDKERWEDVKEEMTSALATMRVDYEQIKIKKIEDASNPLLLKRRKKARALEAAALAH
The target of series [9] is Serine/threonine-protein kinase Chk2 (Homo sapiens) (UniProt O96017). As to the kind of experiment: Inhibition of CHK2 at 1 uM.
Serine/threonine-protein kinase Chk2 (Homo sapiens), sequence (O96017 whole entry): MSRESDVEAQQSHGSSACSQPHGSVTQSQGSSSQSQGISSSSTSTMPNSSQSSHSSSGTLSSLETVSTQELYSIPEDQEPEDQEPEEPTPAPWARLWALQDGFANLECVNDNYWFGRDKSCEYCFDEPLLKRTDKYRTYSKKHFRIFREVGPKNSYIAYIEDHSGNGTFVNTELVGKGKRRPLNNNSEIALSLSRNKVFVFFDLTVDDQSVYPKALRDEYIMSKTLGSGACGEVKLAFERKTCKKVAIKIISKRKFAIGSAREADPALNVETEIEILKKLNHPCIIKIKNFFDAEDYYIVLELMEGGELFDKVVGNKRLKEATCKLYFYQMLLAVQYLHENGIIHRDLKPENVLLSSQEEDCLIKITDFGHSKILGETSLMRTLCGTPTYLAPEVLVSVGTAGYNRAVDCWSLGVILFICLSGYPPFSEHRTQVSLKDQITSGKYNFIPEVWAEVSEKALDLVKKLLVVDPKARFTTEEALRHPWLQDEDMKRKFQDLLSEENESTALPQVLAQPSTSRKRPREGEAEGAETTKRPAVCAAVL
Series [10] in a line: Inhibition of p38.
For series [11], the system named is THP-1. The series can be described thus: Antiinflammatory activity in human THP1 cells assessed as inhibition of LPS-induced TNFalpha production pretreated 30 mins before LPS challenge measured after 4 hrs. It is filed as functional, cell-based.
Series [12] addresses Mitogen-activated protein kinase 3 (Homo sapiens) (UniProt P27361). As to the kind of experiment: Inhibition of ERK1 at 1 uM.
A short description of series [13]: Dissociation constant, pKa of the compound at pH 7.4. It is filed as physicochemical.
The target of series [14] is T2, MAP kinase-activated protein kinase 2. As to the kind of experiment: Inhibition of MK2 pretreated for 30 mins before fluorescein labeled substrate peptide addition measured after 2 hrs by IMAP assay.
The target in series [15] is Mitogen-activated protein kinase 1 (Homo sapiens) (UniProt P28482). As to the kind of experiment: Inhibition of ERK2 at 1 uM.
Mitogen-activated protein kinase 1 (Homo sapiens), sequence (P28482 whole entry, looked up): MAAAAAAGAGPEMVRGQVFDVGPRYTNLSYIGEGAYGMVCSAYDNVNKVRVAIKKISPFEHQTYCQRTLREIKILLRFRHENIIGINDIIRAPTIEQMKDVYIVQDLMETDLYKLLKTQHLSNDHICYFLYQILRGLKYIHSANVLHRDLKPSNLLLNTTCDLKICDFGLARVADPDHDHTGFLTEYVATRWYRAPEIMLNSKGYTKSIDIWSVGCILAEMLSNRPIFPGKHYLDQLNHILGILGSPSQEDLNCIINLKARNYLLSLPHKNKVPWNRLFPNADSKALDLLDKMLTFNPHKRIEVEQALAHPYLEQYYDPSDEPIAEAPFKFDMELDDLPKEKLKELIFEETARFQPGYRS
The test system of another series is PBMC. As to the kind of experiment: Antiinflammatory activity in human PBMC cells assessed as inhibition of LPS-induced TNFalpha production pretreated 30 mins before LPS challenge measured after 4 hrs by ELISA. It is filed as functional, cell-based. On the technique in general: In an ELISA, binding on a coated surface is turned into a signal by an enzyme label.

The nature of a further series: in vitro. Particulars: human, Caco-2.
Series [16] has as its target T3, MAP kinase-activated protein kinase 5 (Homo sapiens) (UniProt Q8IW41).
T3 sequence (whole entry): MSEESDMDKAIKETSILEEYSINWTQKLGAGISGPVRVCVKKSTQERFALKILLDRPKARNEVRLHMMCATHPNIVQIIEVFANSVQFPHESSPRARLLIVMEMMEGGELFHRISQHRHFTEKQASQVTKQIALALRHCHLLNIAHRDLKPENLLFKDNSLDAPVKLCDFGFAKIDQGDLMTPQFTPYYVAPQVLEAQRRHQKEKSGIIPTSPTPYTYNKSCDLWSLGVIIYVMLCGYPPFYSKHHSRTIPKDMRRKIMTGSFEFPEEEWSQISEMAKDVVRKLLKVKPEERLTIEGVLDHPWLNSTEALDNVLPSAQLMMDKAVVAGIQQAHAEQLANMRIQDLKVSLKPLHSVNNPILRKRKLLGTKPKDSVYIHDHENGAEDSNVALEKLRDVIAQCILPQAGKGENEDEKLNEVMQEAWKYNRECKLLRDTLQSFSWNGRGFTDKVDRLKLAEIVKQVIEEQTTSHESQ
As to the kind of experiment: Inhibition of MK5 at 1 uM.

The nature of series [17]: Oral bioavailability in mouse. Format: ADME, organism-based. To be noted: in vivo.
The target in series [18] is MAP kinase-activated protein kinase 3 (Homo sapiens) (UniProt Q16644). The series can be described thus: Inhibition of MK3 at 1 uM.
MAP kinase-activated protein kinase 3 (Homo sapiens), sequence (Q16644 whole entry, looked up): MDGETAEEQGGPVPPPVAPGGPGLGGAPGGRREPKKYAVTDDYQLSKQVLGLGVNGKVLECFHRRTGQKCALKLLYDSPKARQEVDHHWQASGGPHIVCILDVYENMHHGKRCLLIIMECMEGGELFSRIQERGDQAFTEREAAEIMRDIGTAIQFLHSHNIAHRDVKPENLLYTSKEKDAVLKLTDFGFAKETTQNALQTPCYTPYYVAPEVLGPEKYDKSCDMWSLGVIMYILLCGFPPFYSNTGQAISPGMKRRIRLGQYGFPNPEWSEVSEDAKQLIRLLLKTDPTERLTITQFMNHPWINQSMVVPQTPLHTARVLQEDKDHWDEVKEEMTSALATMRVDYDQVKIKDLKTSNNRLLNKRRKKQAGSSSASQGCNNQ

Activity calls are given as the source filed them. No cut-off for these calls is given here.

Mitogen-activated protein kinase 3 (Homo sapiens), sequence (P27361 whole entry): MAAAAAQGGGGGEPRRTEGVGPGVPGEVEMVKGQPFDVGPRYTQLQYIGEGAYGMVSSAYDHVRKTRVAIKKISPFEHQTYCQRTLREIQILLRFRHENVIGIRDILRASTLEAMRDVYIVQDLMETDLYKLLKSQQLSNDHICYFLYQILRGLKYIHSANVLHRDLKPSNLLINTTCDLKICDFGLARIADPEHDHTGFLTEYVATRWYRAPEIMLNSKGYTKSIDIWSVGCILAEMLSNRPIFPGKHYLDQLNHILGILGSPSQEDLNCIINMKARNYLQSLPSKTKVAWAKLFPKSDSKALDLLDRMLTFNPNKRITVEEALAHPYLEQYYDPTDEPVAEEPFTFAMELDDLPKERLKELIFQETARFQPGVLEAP
Description for in vitro: Permeability across human Caco2 cells

On to `O=C1NCC2(CCNCC2)c2[nH]c(-c3ccnc(-c4cc5ccccc5o4)n3)cc21`, for which the inhibition in series [1], in [3], in series [6], in [9], in series [12] and in series [15] was above 80% throughout. For the same compound, the half-life in series [2] and in series [5] was above 1 h throughout. Also, the Activity with THP-1 [4] is above 10 µM. Besides, in [7], the AUC is below 0.006 µM·h. The EC50 in [8] is 1200 nM; with THP-1 [11], 280 nM; in [14] it was 5.9 nM. Also, the inhibition result in series [10] was “inactive”. The compound further yielded a pKa in [13] of 9.1.

Regarding `COCCCOc1ccc(-c2nccc(-c3cc4c([nH]3)C3(CCCNC3)CNC4=O)n2)cn1` (racemic), the inhibition in series [1], in [3], in series [6], in series [9], in [12] and in series [15] was above 80% in each case. Further, the half-life in series [2] and in series [5] was above 1 h throughout. Besides, in series [7], the AUC came to 0.882 µM·h. Also, the 50% effective concentration (EC50) came to 1400 nM in series [8], 920 nM in the series on PBMC, 1500 nM in the series on THP-1 [11] and 21 nM in series [14]. In addition, the inhibition result in [10] is “inactive”. Moreover, the apparent permeability (Papp) in the series “in vitro” came to 4.2 ×10⁻⁶ cm/s. Further, in [13], the pKa stood at 8.2.

In the case of `O=C1NCC2(CCCNC2)c2[nH]c(-c3ccnc(-c4ccc5c(c4)OCO5)n3)cc21` (racemic), the inhibition in series [1] is above 80%; in series [3], above 80%; in series [16], above 95%; in [6] it was above 80%; in [18], above 95%; in series [9], above 80%. Also, the inhibition in series [12] and in series [15] was above 80% in each case. For the same compound, the half-life was 0.808 h in series [2] and above 1 h in series [5]. Moreover, the bioavailability in series [17] came out at 48%. In series [7], this compound yielded an AUC of 3.21 µM·h. Also, the EC50 came out at 930 nM in series [8], 1100 nM in the series on PBMC, 1400 nM in the series with THP-1 [11] and 28 nM in series [14]. The inhibition result in series [10] was “inactive”. Moreover, the Papp in the series “in vitro” was determined as 3.4 ×10⁻⁶ cm/s. In series [13], this compound came in with a pKa of 8.3.

For the compound `CN1CCC2(CC1)CNC(=O)c1cc(-c3ccnc(-c4cc5ccccc5o4)n3)[nH]c12`, the inhibition in series [1], in series [3], in series [6], in series [9], in [12] and in series [15] was above 80% throughout. Also, the half-life in series [2] and in series [5] was above 1 h throughout. Also, in the series on THP-1 [4], the Activity was above 10 µM. Further, the AUC in [7] turned out to be 0.078 µM·h. In addition, the EC50 in series [8] amounted to 1600 nM; with THP-1 [11], 470 nM; in series [14], 13 nM. The inhibition result in [10] was “inactive”. The Papp in “in vitro” was 1 ×10⁻⁶ cm/s. Moreover, in series [13], the pKa came to 8.1.

With `CCN1CCC2(CC1)CNC(=O)c1cc(-c3ccnc(-c4cc5ccccc5o4)n3)[nH]c12`, the inhibition in [1], in series [3], in series [6], in series [9], in [12] and in series [15] was above 80% in each case. The half-life in series [2] is above 0.993 h; in series [5] it was above 1 h. The compound further showed an Activity in the series on THP-1 [4] above 10 µM. In [7], the AUC amounted to 0.154 µM·h. The EC50 in [8] was above 10000 nM; in the series on THP-1 [11] it was 1600 nM; in [14] it was 59 nM. The inhibition entry in series [10] was “inactive”. In “in vitro”, this compound registered a Papp of 0.8 ×10⁻⁶ cm/s. This compound also displayed a pKa in [13] of 8.6.

For `COc1cncc(-c2nccc(-c3cc4c([nH]3)[C@]3(CCCNC3)CNC4=O)n2)c1`, the inhibition in series [1], in series [3], in series [6], in series [9], in series [12] and in [15] was above 80% each time. Moreover, the EC50 in [8] stood at 1100 nM; in the series with PBMC it was 1300 nM; with THP-1 [11], 2400 nM; in series [14], 9.3 nM. Further, the inhibition result in series [10] was “inactive”.

Regarding `COc1cncc(-c2nccc(-c3cc4c([nH]3)C3(CCCNC3)CNC4=O)n2)c1` (racemic), the inhibition in series [1] was above 80%; in series [3], above 80%; in series [16], above 95%; in [6], above 80%; in series [18] it was above 95%; in [9], above 80%. The inhibition in [12] and in series [15] was above 80% throughout. Also, the half-life was 0.702 h in series [2] and 0.945 h in series [5]. The EC50 in [8] was determined as 900 nM; in the series with PBMC, 1000 nM; in the series with THP-1 [11], 1400 nM; in [14] it was 24 nM. In series [10], the inhibition result is “inactive”. The compound also returned a pKa in [13] of 8.4.

Consider `O=C1NCC2(CCCNC2)c2[nH]c(-c3ccnc(-c4cccnc4)n3)cc21` (racemic), for which the inhibition in [1], in series [3], in series [6], in series [9], in [12] and in [15] was above 80% throughout. Also, the EC50 in [8] was 2100 nM; in the series on PBMC, 3300 nM; in the series on THP-1 [11] it was 3000 nM; in [14], 18 nM. Moreover, in series [10], the inhibition result was “inactive”.

For the compound `O=C1NCC2(CCNCC2)c2[nH]c(-c3ccnc(-c4ccc5c(c4)OCO5)n3)cc21`, the inhibition in series [1], in series [3], in series [6], in [9], in series [12] and in [15] was above 80% each time. Further, the half-life in series [2] and in [5] was above 1 h in each case. The bioavailability in series [17] came out at 0.7%. Besides, in series [7], the exposure (AUC) is below 0.006 µM·h. Moreover, the concentration giving a half-maximal response (EC50) worked out at 620 nM in series [8], 910 nM in the series on THP-1 [11] and 4.3 nM in [14]. The inhibition result in series [10] was “inactive”. The compound also yielded a Papp in the series “in vitro” of 0.1 ×10⁻⁶ cm/s. This compound also came in with a pKa in series [13] of 9.3.

Consider `O=C1NCC2(CCCNC2)c2[nH]c(-c3ccnc(-c4cc5ccccc5o4)n3)cc21` (racemic), for which the inhibition in [1], in series [3], in series [6], in series [9], in [12] and in series [15] was above 80% each time. Further, the half-life in [2] and in series [5] was above 1 h throughout. The Activity entry with THP-1 [4] was “Non-toxic”. The same compound returned an AUC in series [7] of 0.472 µM·h. Moreover, the inhibition entry in series [10] was “inactive”. Further, the Papp in “in vitro” amounted to 1.5 ×10⁻⁶ cm/s. Also, the pKa in series [13] is 8.4. Also, in series [14], the EC50 was found to be 11 nM.
